According to patent US7834010B2, “Modulators of peripheral 5-HT receptors” (Serodus AS, priority 2003, dated 2010):
Several values for one entry are separate records, joined by “and”; a condition that tells them apart may be missing. Equal values may be shown once.

Assays:
[1] = biological target: T1, human 5-HT4(b) receptors (Homo sapiens, UniProt Q13639); assay: Adenylyl cyclase assay in membranes of HEK293 cells stably expressing human 5-HT4(b) receptors; assay type: biochemical; conditions: for Kb: each line one individual measurement, read-out: Antagonist pKb value (individual measurements) (converted)
T1 construct: expressed in transfected cells; membranes prepared
T1 sequence (Q13639 whole entry): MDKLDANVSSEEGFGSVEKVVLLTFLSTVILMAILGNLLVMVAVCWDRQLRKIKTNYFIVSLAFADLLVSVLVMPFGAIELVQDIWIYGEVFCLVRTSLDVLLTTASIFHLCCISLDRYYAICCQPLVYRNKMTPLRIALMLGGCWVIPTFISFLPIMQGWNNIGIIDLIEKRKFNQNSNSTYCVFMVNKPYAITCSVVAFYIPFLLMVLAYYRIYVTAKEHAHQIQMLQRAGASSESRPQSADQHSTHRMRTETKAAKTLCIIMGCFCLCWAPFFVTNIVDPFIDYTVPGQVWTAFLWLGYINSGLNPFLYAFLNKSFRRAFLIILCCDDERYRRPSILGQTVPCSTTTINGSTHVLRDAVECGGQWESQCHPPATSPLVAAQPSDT
Description: (§1) Establishment of HEK293 Cell Lines Stably Expressing Human 5-HT4(b) Receptors
(§2) The development of HEK293 cell lines stably expressing human 5-HT4(b) receptors was described and published previously (Bach et al. 2001). Briefly, HEK293 cells (ATCC) were grown in Dulbecco's modified Eagle's medium with 10% fetal calf serum and penicillin (100 U/ml) and streptomycin (100 μg/ml). Cells were transfected with plasmid DNA (pcDNA3.1(−) containing human 5-HT4(b) receptor cDNA) using SuperFect Transfection Reagent (QIAGEN) according to the manufacturers protocol. Serial dilutions of transfected cells were plated in 96 well plates containing G418 (geneticin; Amersham) at 0.4 mg/ml, and isolated single colonies of cells transformed to the neomycin-resistant phenotype were expanded and tested for expression of serotonin receptors by measuring serotonin-stimulated adenylyl cyclase activity (Themmen et al. 1993). Transformed cells were always grown in the presence of G418 (0.4 mg/ml). For binding and adenylyl cyclase analysis, stable cell lines were grown and maintained in UltraCULTURE™ general purpose serum-free medium (BioWhittaker, Walkersville, Md., USA), supplemented with L-glutamine (2 mM), penicillin (100 U/ml) and streptomycin (100 μg/ml).
Membrane Preparation for Radioligand Binding and Adenylyl Cyclase Assay
Membranes were prepared from stably transfected HEK293 cells cultured on 150-mm cell culture dishes and grown to 80% confluence in serum-free medium (UltraCULTURE™, BioWhittaker) with penicillin (10 U/ml) and 2 mM L-Glutamine (BioWhittaker). Cells were washed twice with 10 ml ice-cold HBSS, scraped with a rubber policeman in 10 ml ice-cold HBSS and collected by centrifugation at 800 g for 5 min at 4° C. The cell pellet was resuspended in 1 ml/dish ice-cold STE buffer (27% (w/v) sucrose, 50 mM Tris-HCl, pH 7.5 at 20° C., 5 mM EDTA) and homogenized with an Ultra-Turrax (IKA) homogenizer, using five 10 s bursts with 30 s cooling in ice-water between bursts. To remove nuclei, the homogenate was centrifuged at 300 g for 5 min at 4° C. and the supernatant was further centrifuged at 17000 g for 20 min at 4° C. and the supernatant removed. The crude membrane pellet was resuspended with ten strokes of tight fitting pestle B in a Dounce glass-glass homogenizer in 1 ml/dish ice-cold TE (50 mM Tris-HCl, pH 7.5 at RT, 5 mM EDTA). This procedure was repeated twice and the resuspended membranes were finally aliquoted and flash frozen in liquid nitrogen and stored at −70° C. until use.
Adenylyl cyclase activity was measured by determining conversion of [α-^32P]ATP to [^32P]cAMP in membranes prepared in STE by homogenization of cells grown and washed as described above in a Dounce glass-glass homogenizer by 10 strokes with the tight-fitting pestle. Membranes were kept on ice prior to assay. Adenylyl cyclase activities were measured on 10-μl aliquots in a final volume of 50 μl in the presence of 0.1 mM [α-^32P]ATP (1-2×10^6 cpm/assay), 4 mM MgCl2, 20 μM GTP, 1 mM EDTA, 1 mM [^3H]cAMP (ca. 10,000 cpm/assay), 1 μM 3-isobutyl-1-methyl xanthine (IBMX; Sigma), a nucleoside triphosphate regenerating system consisting of 20 mM creatine phosphate (Sigma), 0.2 mg/ml creatine phosphokinase (Sigma) and 40 U/ml myokinase (Sigma) and additives described in the text and figures. When forskolin (Calbiochem, La Jolla, Calif., USA) was used the concentration was 100 μM. Incubations were for 20 min at 32EC. Cyclic AMP formed was quantified by the double column chromatography system of Salomon et al. (1974) as modified by Bockaert et al. (1976).
Binding and adenylyl cyclase data were analyzed by non-linear regression using Microsoft Excel with the Solver add-in, using the below equations.
Activation of adenylyl cyclase—The data were fit to the equation Y=a+(b−a)x/(c+x) where a is basal adenylyl cyclase activity, b is maximal adenylyl cyclase activity stimulated by the agonist, c is EC50, and x is the concentration of agonist.

[2] = biological target: T1, human 5-HT4(b) receptors; assay: Radioligand binding assay with [3H]GR113808 on membranes of HEK293 cells stably expressing human 5-HT4(b) receptors; conditions: competition with [3H]GR113808, HEK293 membranes, each line one individual measurement, read-out: Binding affinity (pKd value) (individual measurements) (converted)
Description: as §1, §2
Membrane Preparation for Radioligand Binding and Adenylyl Cyclase Assay […]
Binding assays were performed in 96-well, round-bottom microtiter plates with total reaction volumes of 50-200 μl, containing the indicated concentration of [^3H]GR113808 with or without competing unlabelled ligand in a binding buffer containing 50 mM Tris-HCl (pH 7.5 at RT), 1 mM EDTA, 5 mM EGTA, 2 mM MgCl2, 1 mM ascorbate, 0.1% BSA and 100 μM GTP. […] The filters were dried and counted at approximately […] efficiency in a Top-Count liquid scintillation counter (Packard), using 20 μl per filter well of Micro-Scint liquid scintillation cocktail (Packard).
Binding and adenylyl cyclase data were analyzed by non-linear regression using Microsoft Excel with the Solver add-in, using the below equations. […]

| Structure (SMILES) | Agonist/Antagonist properties [1] | Kb [1] | Kd [2] |
| --- | --- | --- | --- |
| CCCCN1CCC(COC(=O)c2c[nH]c3ccccc23)CC1 [DDL-6002] | Antagonist | 0.129 nM | 0.0282 nM and 0.0219 nM |
| Cn1cc(C(=O)OCC2CCN(CCNS(C)(=O)=O)CC2)c2ccccc21 [GR113808, 1-methyl-1H-indole-3-carboxylic acid, [1-[2-[(methylsulfonyl)amino]ethyl]-4-piperidinyl]methyl ester] | Antagonist | 0.105 nM and 0.135 nM and 0.17 nM and 0.224 nM and 0.151 nM and 0.178 nM | 0.115 nM and 0.049 nM and 0.0617 nM and 0.0195 nM |
| CCCCN1CCC(CNC(=O)c2c3n(c4ccccc24)CCCO3)CC1 [SB207266] | Antagonist | 0.132 nM and 0.17 nM | 0.0174 nM |
